This experiment has as its target T1, asPARP-1 in nuclei from Parp1−/− MEFs (Mus musculus, UniProt P11103, L876A).
T1 construct: expressed in transfected cells; host or cells: Parp1-/- mouse embryonic fibroblasts, lentiviral transduction, isolated nuclei
Kind of experiment: 8-Bu(3-yne)T-ADP-ribosylation reactions in intact nuclei. In kind it is cell-based. The conditions noted are these: Parp1−/− MEF nuclei, 250 μM analog, 30 minutes at 25° C. The procedure: 50% confluent MEF cells expressing asPARP-1 were harvested with cold PBS using a rubber policeman and collected by centrifugation for 5 minutes at 800 RCF at 4° C. Cells were resuspended for 10 minutes to facilitate cell swelling in Nuclear Isolation Buffer (10 mM HEPES, pH 8.0, 2 mM MgCl2, 3 mM CaCl2, 300 mM Sucrose, 1 mM DTT, 1 mM PMSF, 4 mM Benzamidine, 1 μM Aprotinin, 100 μM Leupeptin, 1 μM Pepstatin A, and 1 in 250 parts SIGMA Phosphatase Inhibitor Cocktails 2 and 3). Nuclei were released from cells by addition of NP-40 to 0.65% under medium vortex and immediately collected by centrifugation at 10,000 RCF for 1 minute at 4° C. […]
Following 8-Bu(3-yne)T-ADP-ribosylation in intact nuclei from MEFs as described above, the nuclei were washed once with Nuclei Click Reaction Buffer (10 mM HEPES, pH 8.0, 10 mM NaCl, 10 mM spermidine, 0.1% NP-40, with freshly added protease inhibitors) and then clicked twice to Alexa Fluor 488 by the sequential addition of 100 μM azido-Alexa Fluor 488 (Life Technologies), a pre-formed complex of CuSO4:THPTA (1.0 mM:5.0 mM), and 5 mM sodium ascorbate. […] Fluorescence was visualized via confocal microscopy using a Leica TCS SP2 Confocal Microscope.

The record followed here is patent publication US9926340B2, “NAD analogs and methods of using said NAD analogs in determining ribosylation of proteins with PARP mutants” (The Board of Regents of the University of Texas System, priority 2015, dated 2018).

Structures are written as SMILES. “Also recorded” adds a separate entry of the source.

T1 sequence (P11103 whole entry L876A): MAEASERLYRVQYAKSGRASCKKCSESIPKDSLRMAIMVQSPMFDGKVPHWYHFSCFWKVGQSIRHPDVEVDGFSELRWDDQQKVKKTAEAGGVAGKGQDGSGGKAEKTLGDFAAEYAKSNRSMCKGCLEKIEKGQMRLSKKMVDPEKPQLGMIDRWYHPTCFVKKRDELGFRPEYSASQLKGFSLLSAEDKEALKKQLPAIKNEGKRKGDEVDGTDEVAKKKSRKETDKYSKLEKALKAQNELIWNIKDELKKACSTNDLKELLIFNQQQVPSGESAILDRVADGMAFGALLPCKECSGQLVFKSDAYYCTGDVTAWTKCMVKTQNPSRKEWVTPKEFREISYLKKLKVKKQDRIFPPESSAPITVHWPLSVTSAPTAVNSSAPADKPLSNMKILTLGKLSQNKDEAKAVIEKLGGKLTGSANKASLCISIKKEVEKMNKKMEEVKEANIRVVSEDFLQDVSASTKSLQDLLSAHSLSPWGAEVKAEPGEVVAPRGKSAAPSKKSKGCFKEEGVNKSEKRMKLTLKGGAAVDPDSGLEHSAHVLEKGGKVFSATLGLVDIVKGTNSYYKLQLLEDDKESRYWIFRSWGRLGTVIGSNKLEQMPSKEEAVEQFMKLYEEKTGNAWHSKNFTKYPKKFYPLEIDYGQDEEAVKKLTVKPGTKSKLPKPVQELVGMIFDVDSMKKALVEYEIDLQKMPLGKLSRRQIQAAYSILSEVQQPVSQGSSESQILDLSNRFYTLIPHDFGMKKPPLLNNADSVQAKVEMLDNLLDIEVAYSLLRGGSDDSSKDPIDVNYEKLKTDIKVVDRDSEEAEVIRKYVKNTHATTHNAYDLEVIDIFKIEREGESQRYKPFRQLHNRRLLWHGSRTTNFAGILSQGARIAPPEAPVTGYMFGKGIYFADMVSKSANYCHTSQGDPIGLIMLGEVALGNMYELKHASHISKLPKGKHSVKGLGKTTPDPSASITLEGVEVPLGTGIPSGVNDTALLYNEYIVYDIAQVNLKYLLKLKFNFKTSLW

With `C#CCCSc1nc2c(N)ncnc2n1[C@@H]1O[C@H](COP(=O)(O)OP(=O)(O)OC[C@H]2O[C@@H]([n+]3cccc(C(N)=O)c3)C(O)C2O)[C@H](O)C1O` (stereo partly shown) [8-Bu(3-yne)T-NAD^+], the “ADP-ribosylation in intact nuclei expressing asPARP-1” value is reported as “catalytically active; also recorded: clearly evident”.
